Starred links: 1 amine or outer side, 2 acyl side, 3 side chain; linkers in the order of their positions; H or OH if unused. Positions of bridges follow the written chain, without caps; N, C: chain ends. Residues, ends and D or L forms follow the SMILES beside them. Chains are numbered I, II in the order given. Rhodamine110 = O=C1OC2(c3ccc(N[*:1])cc3Oc3cc(N[*:2])ccc32)c2ccccc21
How the values were obtained:
E. coli endotoxin = assay: Detection of endotoxin with Limulus Amebocyte Lysate (LAL) and fluorogenic substrate; assay type: biochemical; conditions: Ex/Em=490/525 nm
Description: FIG. 5. Illustrates the detection of E. coli endotoxin with an exemplary compound. E. coli endotoxin is measured in a black/solid bottom 96-well plate with Compound 7. The fluorescence intensity is recorded using a Gemini microplate reader at Ex/Em=490/525 nm, cutoff=515 nm. As low as 0.001 EU/mL of E. coli endotoxin can be detected.
Endotoxin is the major component of the outer membrane of Gram-negative bacteria. endotoxin is a potent stimulator of the vertebrate innate immune system and can cause fever, septic shock and eventually death. It is recognized as a biomarker for the detection of bacterial pathogen invasion and is responsible for the development of inflammatory response and endotoxic shock in extreme cases. […] The LAL enzymatic cascade can be activated by endotoxin at pH 6.0 to 7.5, and the amount of activated enzyme present can be measured by its ability to cleave the fluorogenic and/or chromogenic substrate. […] The endotoxin activity is proportional to the fluorescence intensity of rhodamine 110 resulting from the hydrolysis of Compound 7. The concentration of endotoxin in a sample can be calculated from a standard curve. […] The fluorescence intensities of the test sample solutions are recorded with a fluorescence microplate reader at Ex/Em=490/525 nm within 10-30 minutes.

Caspase 3/7 = assay: Detection of apoptosis / caspase 3/7 activities in Jurkat cells, whole cell assay; assay type: cell-based; conditions: staurosporine 0.5 μg/ml 2 hours, 50 μM substrate 2 hours at 37° C., Ex/Em=540/620 nm
Description: FIG. 3. Illustrates the detection of Caspase 3/7 activities in Jurkat cells with Compound 4. Jurkat cells are seeded on the same day at 200,000 cells/90 μL/well in a Costar black wall/clear bottom 96-well plate. The cells are treated with or without 1 μM of staurosporine for 5 hours. The caspase 3/7 working solution (100 μL/well) are added and incubated at room temperature for 1 hour. The fluorescence intensity is measured at Ex/Em=540/620 nm (Cutoff=610 nm) with FlexStation fluorescence microplate reader.
Jurkat T leukemia cells are grown in RPMI 1640 media (Life Technologies, Inc.) and 10% FCS (Sigma Chemical Company) in a 5% CO2-95% humidity incubator at 37° C., and maintained at a cell density between 4 and 8×10^5 cells/ml. Cells were harvested at 200×g and resuspended at 1×10^6 cells/ml into RPMI 1640 media containing 10% FCS and 1 ml each were dispensed in 2-wells of a 6-well plate. The apoptosis inducer staurosporine is added at 0.5 μg/ml concentration and the plate is incubated for 2 hours at 37° C. in a 5% CO2-95% humidity incubator. Cells are incubated with 50 μM of substrate Compound 4 for 2 hours at 37° C. in serum-free RPMI medium. The samples are analyzed with a fluorescence microplate reader (top or bottom read mode) at Ex/Em=540/620 nm (Cutoff=610 nm).

Compound | lowest detectable E. coli endotoxin (E. coli endotoxin; 96-well plate, cutoff=515 nm) | fluorescence of hydrolyzed product (rhodamine 110) after hydrolysis by LAL in the presence of endotoxins (E. coli endotoxin; LAL 100 U, 10 uM substrate) | cleavage of the caspase-3/7 substrate on induction of apoptosis (Caspase 3/7)
CCC(C)C(NC(C)=O)C(=O)NC(CCC(=O)O)C(=O)NC(C)C(=O)NC(CCCNC(=N)N)C(=O)Nc1ccc2c(c1)Oc1cc(NC(=O)C(CCCNC(=N)N)NC(=O)C(C)NC(=O)C(CCC(=O)O)NC(=O)C(NC(C)=O)C(C)CC)ccc1C21OC(=O)c2ccccc21 (stereo not drawn) [Compound 7] (I: Ac-IEAR / II: Ac-IEAR; linker I:C-II:C via Rhodamine110; configuration not given here) | 0.001 EU/mL | strong green fluorescence | 
Compound 4 (DVED) |  |  | leads to cleavage

Source: US12663415B2, “Chromogenic and fluorogenic compounds and their use for biological detection” (AAT Bioquest, Inc., priority 2022, dated 2026)
